Structures are written as SMILES.

In the case of `CN(CCCCC(=O)c1ccc2[nH]c(=O)[nH]c2c1)CCc1ccccc1.Cl`, the melting point is 240 °C.

Take `COc1ccccc1CCN(C)CCCCC(=O)c1ccc2[nH]c(=O)[nH]c2c1.Cl`: the melting point is 169 to 180 °C (dec.).

For the compound `CN(CCCCC(=O)c1ccc2c(c1)n(C)c(=O)n2C)CCc1ccccc1.Cl`, the melting point is 142 to 157 °C (dec.).

On to `COc1ccccc1CCN(C)CCCCC(=O)c1ccc2c(c1)n(C)c(=O)n2C.Cl`, for which the melting point was 125 to 140 °C (dec.).

`Cl.O=C(CCCCNCCc1ccccc1Cl)c1ccc2[nH]c(=O)[nH]c2c1` came in with a melting point of 233 °C.

The compound `Cl.Cn1c(=O)n(C)c2cc(C(=O)CCCCNCCc3ccccc3)ccc21` displayed a melting point of 187 to 189 °C.

Compound `COc1ccc(CCNCCCCC(=O)c2cc3c4c(c2)CCN4C(=O)CC3)cc1.Cl` gave a melting point of 179 to 181 °C.

For the compound `Cl.O=C(CCCCNCCc1ccc(Cl)cc1)c1cc2c3c(c1)CCN3C(=O)CC2`, the melting point is 193 to 195 °C.

Take `Cl.O=C(CCCCNCCc1ccccc1O)c1cc2c3c(c1)CCN3C(=O)CC2`: the melting point fell in the range of 112 to 113 °C.

Compound `Cl.O=C(CCCCNCCc1c(Cl)cccc1Cl)c1cc2c3c(c1)CCN3C(=O)CC2` registered a melting point of 171 to 174 °C.

`COc1cccc(CCNCCCCC(=O)c2cc3c4c(c2)CCN4C(=O)CC3)c1OC.Cl`: the melting point fell in the range of 154 to 156 °C.

Consider `COc1ccc(C(=O)CCCCNCCc2ccccc2)cc1S(N)(=O)=O.Cl`, for which the melting point lay in the range of 160 to 168 °C.

The compound `COc1ccccc1CCNCCCCC(=O)c1ccc(OC)c(S(N)(=O)=O)c1.Cl` gave a melting point of 139 to 141 °C.

`COc1ccc(C(=O)CCCCNCCc2ccccc2Cl)cc1S(N)(=O)=O.Cl` had a melting point of 161 to 163 °C.

In turn, `COc1ccccc1CCNCCCCC(=O)c1ccc(OC)c(S(=O)(=O)NC(C)C)c1.Cl` showed a melting point of 164 to 166 °C.

Consider `COc1ccc(C(=O)CCCCNCCc2ccccc2Cl)cc1S(=O)(=O)NC(C)C.Cl`, for which the melting point lay within 179 to 181 °C.

`Cl.NS(=O)(=O)c1cc(C(=O)CCCCNCCc2ccccc2Cl)cc2c1OCC2` displayed a melting point of 160 to 170 °C.

On to `COc1ccccc1CCNCCCCC(=O)c1cc2c(c(S(=O)(=O)NC(C)C)c1)OCC2.Cl`, for which the melting point lay in the range of 157 to 159 °C.

The compound `CC(C)NS(=O)(=O)c1cc(C(=O)CCCCNCCc2ccccc2Cl)cc2c1OCC2.Cl` came in with a melting point of 149 to 151 °C.

As to `Cl.NS(=O)(=O)c1cc(C(=O)CCCCNCCc2ccccc2)cc2c1OCCO2`, the melting point was 152 to 154 °C.

As for `COc1ccccc1CCNCCCCC(=O)c1cc2c(c(S(N)(=O)=O)c1)OCCO2.Cl`, the melting point is 166 to 168 °C.

On to `Cl.NS(=O)(=O)c1cc(C(=O)CCCCNCCc2ccccc2Cl)cc2c1OCCO2`, for which the melting point was 178 to 180 °C.

Compound `COc1ccc(C(=O)CCCCNCCc2ccccc2)cc1NS(C)(=O)=O.Cl` came in with a melting point of 131 to 133 °C.

Consider `COc1ccccc1CCNCCCCC(=O)c1ccc(OC)c(NS(C)(=O)=O)c1.Cl`, for which the melting point fell in the range of 129 to 131 °C.

As for `COc1ccc(C(=O)CCCCNCCc2ccccc2Cl)cc1NS(C)(=O)=O.Cl`, the melting point fell in the range of 133 to 135 °C.

Consider `COc1ccc(C(=O)CCCCCNCCc2ccccc2)cc1NS(C)(=O)=O.Cl`, for which the melting point fell in the range of 136 to 138 °C.

As for `COc1ccccc1CCNCCCCCC(=O)c1ccc(OC)c(NS(C)(=O)=O)c1.Cl`, the melting point is 142 to 144 °C.

`COc1ccc(C(=O)CCCCCNCCc2ccccc2Cl)cc1NS(C)(=O)=O.Cl` had a melting point of 112 to 115 °C.

The compound `COc1ccccc1CCNCCCCC(=O)c1c[nH]c2ccccc12.Cl` displayed a melting point of 143 to 145 °C.

With `Cl.O=C(CCCCNCCc1ccccc1Cl)c1c[nH]c2ccccc12`, the melting point lay in the range of 149 to 151 °C.

For `Cl.O=C(CCCCCNCCc1ccccc1Cl)c1c[nH]c2ccccc12`, the melting point lay in the range of 151 to 153 °C.

As to `COc1ccccc1CCNCCCCC(=O)c1cccs1.Cl`, the melting point fell in the range of 101 to 103 °C.

As for `Cl.O=C(CCCCNCCc1ccccc1Cl)c1cccs1`, the melting point lay within 146 to 147 °C.

Turning to `COc1ccccc1CCNCCCCCC(=O)c1cccs1.Cl`, the melting point was in the range of 107 to 109 °C.

Compound `Cl.O=C(CCCCCNCCc1ccccc1Cl)c1cccs1` had a melting point of 149 to 151 °C.

Turning to `COc1ccccc1CCNCCCCC(=O)c1cc2c3c(c1)CCN3C(=O)CC2.Cl`, the melting point was 94 to 96 °C.

In turn, `COc1cccc(CCNCCCCCC(=O)c2cc3c4c(c2)CCN4C(=O)CC3)c1.Cl` registered a melting point of 136 to 138 °C.

As for `COc1ccc(CCNCCCCCC(=O)c2cc3c4c(c2)CCN4C(=O)CC3)cc1.Cl`, the melting point fell in the range of 179 to 180 °C.

Compound `Cl.O=C(CCCCCNCCc1ccccc1Cl)c1cc2c3c(c1)CCN3C(=O)CC2` had a melting point of 172 to 174 °C.

In turn, `CN(CCCCCC(=O)c1cc2c3c(c1)CCN3C(=O)CC2)CCc1ccccc1.Cl` displayed a melting point of 83 to 85 °C.

`COc1cccc(CCN(C)CCCCCC(=O)c2cc3c4c(c2)CCN4C(=O)CC3)c1.Cl` gave a melting point of 116 to 118 °C.

Turning to `Cl.O=C1NCc2cc(C(=O)CCCCNCCc3ccccc3)ccc2N1`, the melting point is 199 to 205 °C (dec.).

As to `COc1ccccc1CCNCCCCC(=O)c1ccc2c(c1)CNC(=O)N2.Cl`, the melting point was 176 to 180 °C (dec.).

For `Cl.O=C1NCc2cc(C(=O)CCCCNCCc3ccccc3Cl)ccc2N1`, the melting point is 176 to 185 °C (dec.).

`CN(CCCCC(=O)c1ccc2c(c1)CNC(=O)N2)CCc1ccccc1.Cl` yielded a melting point of 164 to 166 °C.

Turning to `COc1ccccc1CCN(C)CCCCC(=O)c1ccc2c(c1)CNC(=O)N2.Cl`, the melting point is 170 to 171 °C (dec.).

Compound `CN(CCCCC(=O)c1ccc2c(c1)CN(C)C(=O)N2C)CCc1ccccc1.Cl` displayed a melting point of 174 to 176 °C.

In the case of `COc1ccccc1CCN(C)CCCCC(=O)c1ccc2c(c1)CN(C)C(=O)N2C.Cl`, the melting point was 145 to 146 °C.

For `CN(CCCCC(=O)c1ccc2c(c1)CN(C)C(=O)N2C)CCc1ccccc1Cl.Cl`, the melting point is 187 to 188 °C.

Consider `COc1ccccc1CCNCCCC(=O)c1cc2c3c(c1)CCN3C(=O)CC2.Cl`, for which the melting point fell in the range of 165 to 167 °C.

Compound `COc1cccc(CCNCCCCC(=O)c2cc3c4c(c2)CCN4C(=O)CC3)c1.Cl` gave a melting point of 97 to 100 °C.

Take `Cl.O=C(CCCCCNCc1ccccc1)c1cc2c3c(c1)CCN3C(=O)CC2`: the melting point was 181 to 183 °C.

Compound `COc1ccccc1CCN1CCC(CCC(=O)c2cc3c4c(c2)CCN4C(=O)CC3)CC1.Cl` yielded a melting point of 209 to 211 °C.

In turn, `COc1cccc(CCN2CCC(CCC(=O)c3cc4c5c(c3)CCN5C(=O)CC4)CC2)c1.Cl` returned a melting point of 240 to 242 °C.

In turn, `COc1ccc(CCN2CCC(CCC(=O)c3cc4c5c(c3)CCN5C(=O)CC4)CC2)cc1.Cl` yielded a melting point of 141 to 143 °C.

`CCOc1ccccc1CCN1CCC(CCC(=O)c2cc3c4c(c2)CCN4C(=O)CC3)CC1.Cl` registered a melting point of 182 to 184 °C.

Turning to `Cl.O=C(CCC1CCN(CCc2ccccc2O)CC1)c1cc2c3c(c1)CCN3C(=O)CC2`, the melting point lay within 220 to 222 °C.

Take `Cc1cccc(CCN2CCC(CCC(=O)c3cc4c5c(c3)CCN5C(=O)CC4)CC2)c1.Cl`: the melting point is 197 to 199 °C.

Regarding `Cl.O=C(CCC1CCN(CCc2ccccc2Cl)CC1)c1cc2c3c(c1)CCN3C(=O)CC2`, the melting point was in the range of 207 to 210 °C.

Turning to `Cl.O=C(CCC1CCN(CCc2ccc(Cl)cc2)CC1)c1cc2c3c(c1)CCN3C(=O)CC2`, the melting point fell in the range of 204 to 206 °C.

Compound `Cl.O=C(CCC1CCN(CCc2ccc([N+](=O)[O-])cc2)CC1)c1cc2c3c(c1)CCN3C(=O)CC2` gave a melting point of 217 to 219 °C.

`Cl.O=C(CCC1CCN(CCc2c(Cl)cccc2Cl)CC1)c1cc2c3c(c1)CCN3C(=O)CC2` yielded a melting point of 226 to 229 °C.

In turn, `Cl.O=C(CCC1CCN(CCc2c[nH]c3ccccc23)CC1)c1cc2c3c(c1)CCN3C(=O)CC2` returned a melting point of 157 to 159 °C.

Compound `Cl.O=C(CCC1CCN(CC(=O)c2ccccc2)CC1)c1cc2c3c(c1)CCN3C(=O)CC2` came in with a melting point of 114 to 116 °C.

The compound `CCOc1ccccc1OCCN1CCC(CCC(=O)c2ccc(OC)c(NC(C)=O)c2)CC1.Cl` showed a melting point of 127 to 129 °C.

`COc1ccc2c(c1)CCCN(CCCC(=O)c1cc3c4c(c1)CCN4C(=O)CC3)C2.Cl` registered a melting point of 121 to 123 °C.

Turning to `Cl.O=C(CCCCNC1Cc2ccccc2C1)c1cc2c3c(c1)CCN3C(=O)CC2`, the melting point lay in the range of 187 to 189 °C.

`COc1cc2c(cc1OC)CN(CCCCC(=O)c1cc3c4c(c1)CCN4C(=O)CC3)CC2.Cl` returned a melting point of 215 to 217 °C.

On to `COc1cc2c(cc1OC)CN(CCCCCC(=O)c1cc3c4c(c1)CCN4C(=O)CC3)CC2.Cl`, for which the melting point is 216 to 218 °C.

On to `Cl.O=C(CCCCCN1CCc2ccccc2CC1)c1cc2c3c(c1)CCN3C(=O)CC2`, for which the melting point was in the range of 222 to 225 °C.

Regarding `Cl.O=C(CCCCNCCCc1ccccc1)c1cc2c3c(c1)CCN3C(=O)CC2`, the melting point lay in the range of 116 to 118 °C.

Take `Cl.O=C(CCCCNCCc1ccccc1Cl)c1cc2c3c(c1)CCN3C(=O)CC2`: the melting point was 128 to 130 °C.

Turning to `Cl.O=C(CCCCNCCc1cccc(F)c1)c1cc2c3c(c1)CCN3C(=O)CC2`, the melting point is 172 to 173 °C.

In the case of `COc1ccc(CCNCCCCC(=O)c2cc3c4c(c2)CCN4C(=O)CC3)cc1S(N)(=O)=O.Cl`, the melting point is 145 °C (dec.).

For `Cl.O=C(CCCCCN1CCCc2ccccc2C1)c1cc2c3c(c1)CCN3C(=O)CC2`, the melting point was 195 to 197 °C.

On to `Cc1ccccc1CCN1CCC(CCC(=O)c2cc3c4c(c2)CCN4C(=O)CC3)CC1.Cl`, for which the melting point was in the range of 215 to 216 °C.

`Cl.O=C(CCC1CCN(CCc2ccccc2F)CC1)c1cc2c3c(c1)CCN3C(=O)CC2` showed a melting point of 210 to 212 °C.

`Cl.O=C(CCC1CCN(CCc2cccc(Cl)c2)CC1)c1cc2c3c(c1)CCN3C(=O)CC2` registered a melting point of 223 to 225 °C.

For `Cl.O=C(CCC1CCN(C2Cc3ccccc3C2)CC1)c1cc2c3c(c1)CCN3C(=O)CC2`, the melting point was 290 °C (dec.).

`Cl.O=C(CCC1CCN(CCCc2ccccc2)CC1)c1cc2c3c(c1)CCN3C(=O)CC2`: the melting point was in the range of 173 to 175 °C.

The values above are taken from patent US7132547B2, “Preventives/remedies for urinary disturbance” (priority 2001, dated 2006).
